Results: patent publication EP1066315B1 (University of Dundee, priority 1998, dated 2008)
Residues, ends and D or L forms follow the SMILES beside them. *: point of attachment. Fmoc = O=C(OCC1c2ccccc2-c2ccccc21)*

Tested on: Cathepsin S
Assay: Hydrolysis of cathepsin S substrate by B cell lysosomal fractions
Format: biochemical, human
Conditions: Fig 3b
Procedure: The invention will now be described by reference to the following Examples and Figures wherein • Figure 1: Processing of TTCF by a leupeptin-insensitive cysteine endopeptidase activity. (a) TTCF was digested in vitro in the presence of disrupted lysosomes (1-2 µg) in the presence or absence of iodoacetamide (1 mM), leupeptin, E64 or pepstatin (each at 0.1 mg/ml). Digestions were in 0.1 M NH4 acetate at pH 4.5 or Na2HPO4, pH 6.0 or 7.0. After 4 hours at 37°C, the reactions were separated by Tris-tricine SDS-PAGE and stained with Coomassie Blue. (b) Cleavage sites: TTCF digestion products were separated by SDS PAGE and electrophoretically transferred to nitrocellulose membrane. Individual fragments numbered 1-6 were subjected to 5 cycles of Edman degradation. N-terminal sequence obtained is shown in bold following upstream residues from TTCF (tetanus toxin numbering). […] (c) Each fraction was analysed by SDS-PAGE and Western blotting. […] Release of 7-amino-4-methyl coumarin was measured after 10, 20 or 30 minutes. […] At different times the cells were washed, fixed in 0.05 % glutaraldehyde and antigen presentation measured using proliferation of different autologous TTCF-specific T cell clones. c, AEP pre-processing of TTCF speeds antigen presentation. […] Presentation was measured after 60 minutes of antigen pulsing using EBV B cells. […]

C[C@H](NC(=O)OCC1c2ccccc2-c2ccccc21)C(=O)N[C@@H](CCC(=O)O)C(=O)N[C@@H](CC(N)=O)C(=O)N[C@@H](CCCCN)C(N)=O [AENK, Ala-Glu-Asn-Lys-NH] (Fmoc-AENK-NH2)
hydrolysis of the Cathepsin S substrate Z-Val-Val-Arg-HNMec: had no effect
